Assays:
[1] = tested on: Hepatitis B virus; assay: Antiviral activity against HBV infected in human HepG2.2.15 cells assessed as reduction in HBsAg level incubated for 6 days with media and compound replenishment on third day by CLIA; type: functional, organism-based; conditions: HepG2.2.15, 144 h; for EC90: time 6 day
[2] = Chemical stability of compound in PBS assessed as compound remaining measured after 6 days by HPLC UV analysis; type: physicochemical; conditions: buffer, 144 h; time 6 day
[3] = Cytotoxicity in human HepG2.2.15 cells by Cell Titer-Glo assay; type: toxicity, cell-based, HepG2 2.2.15
[4] = Selectivity ratio of drug concentration in liver in CD-1 mouse at 10 mg/kg, po measured for 12 hrs to EC90 for antiviral activity against HBV infected in human HepG2.2.15 cells assessed as reduction in HBsAg level; type: ADME, organism-based; conditions: in vivo
[5] = Selectivity ratio of drug concentration in liver in CD-1 mouse at 10 mg/kg, po measured for 24 hrs to EC90 for antiviral activity against HBV infected in human HepG2.2.15 cells assessed as reduction in HBsAg level; type: ADME, organism-based; conditions: in vivo
[6] = Metabolic stability in Sprague-Dawley rat liver microsomes assessed as clearance at 0.3 uM preincubated for 5 mins followed by NADPH addition measured upto 60 mins by LC-MS/MS analysis; type: ADME, Microsome; conditions: time < 65 min, read-out: CLH
[7] = Metabolic stability in CD-1 mouse liver microsomes assessed as clearance at 0.3 uM preincubated for 5 mins followed by NADPH addition measured upto 60 mins by LC-MS/MS analysis; type: ADME, Microsome; conditions: time < 65 min, read-out: CLH
[8] = Ratio of total drug concentration in liver to plasma in CD-1 mouse at 0.2 mg/kg, po measured for 24 hrs by LC-MS/MS analysis; type: ADME, organism-based; conditions: for Ratio: mouse, in vivo, po, 0.2 mg/kg, 24 h, BLD = below limit of detection
[9] = AUC (0 to 24 hrs) in CD-1 mouse at 0.2 mg/kg, po measured for 24 hrs by LC-MS/MS analysis; type: ADME, organism-based; conditions: in vivo
[10] = Ratio of total drug concentration in liver to plasma in CD-1 mouse at 10 mg/kg, po measured for 24 hrs by LC-MS/MS analysis; type: ADME, organism-based; conditions: for Ratio: mouse, in vivo, po, 10 mg/kg, 24 h, BLD = below limit of detection; for Kp at 24 h: CD-1, mouse, liver and plasma
[11] = AUC (0 to 24 hrs) in CD-1 mouse at 10 mg/kg, po measured for 24 hrs by LC-MS/MS analysis; type: ADME, organism-based; conditions: in vivo
[12] = Selectivity ratio of drug concentration in liver in CD-1 mouse at 0.2 mg/kg, po measured for 12 hrs to EC90 for antiviral activity against HBV infected in human HepG2.2.15 cells assessed as reduction in HBsAg level; type: ADME, organism-based; conditions: in vivo
[13] = Selectivity ratio of drug concentration in liver in CD-1 mouse at 0.2 mg/kg, po measured for 24 hrs to EC90 for antiviral activity against HBV infected in human HepG2.2.15 cells assessed as reduction in HBsAg level; type: ADME, organism-based; conditions: in vivo
[14] = Ratio of total drug concentration in liver to plasma in CD-1 mouse at 10 mg/kg, po measured for 12 hrs by LC-MS/MS analysis; type: ADME, organism-based; conditions: liver and plasma
[15] = Metabolic stability in human liver microsomes assessed as clearance at 0.3 uM preincubated for 5 mins followed by NADPH addition measured upto 60 mins by LC-MS/MS analysis; type: ADME, Microsome; conditions: time < 65 min, read-out: CLH
[16] = Ratio of total drug concentration in liver to plasma in CD-1 mouse at 0.2 mg/kg, po measured for 12 hrs by LC-MS/MS analysis; type: ADME, organism-based; conditions: liver and plasma
[17] = Oral bioavailability in CD-1 mouse at 10 mg/kg measured for 24 hrs by LC-MS/MS analysis; type: ADME, organism-based; conditions: in vivo
[18] = Selectivity ratio of drug concentration in liver in Sprague-Dawley rat at 5 mg/kg, po measured for 24 hrs to EC90 for antiviral activity against HBV infected in human HepG2.2.15 cells assessed as reduction in HBsAg level; type: ADME, organism-based; conditions: in vivo
[19] = tested on: Hepatitis B virus; assay: Antiviral activity against HBV genotype D in immuno-competent C57BL/6 mouse model of chronic HBV assessed as log10 reduction in HBsAg production at 10 mg/kg, po qd for 7 days measured 24 hrs post-last dose by EIA relative to control; type: functional; conditions: time 8 day
[20] = AUC (0 to 24 hrs) in Sprague-Dawley rat at 5 mg/kg, po measured for 24 hrs by LC-MS/MS analysis; type: ADME, organism-based; conditions: in vivo
[21] = Ratio of total drug concentration in liver to plasma in Sprague-Dawley rat at 5 mg/kg, po measured for 24 hrs by LC-MS/MS analysis; type: ADME, organism-based; conditions: other tissue
[22] = tested on: Hepatitis B virus; assay: Antiviral activity against HBV genotype D in immuno-competent C57BL/6 mouse model of chronic HBV assessed as log10 reduction in HBsAg production at 3 mg/kg, po qd for 7 days measured 24 hrs post-last dose by EIA relative to control; type: functional; conditions: time 8 day
[23] = Oral bioavailability in Sprague-Dawley rat at 5 mg/kg measured for 24 hrs by LC-MS/MS analysis; type: ADME, organism-based; conditions: in vivo
[24] = tested on: Hepatitis B virus; assay: Antiviral activity against HBV genotype D in immuno-competent C57BL/6 mouse model of chronic HBV assessed as log10 reduction in HBsAg production at 10 mg/kg, po qd for 7 days measured 24 hrs post-last dose by EIA (reference value: 0.98); type: functional; conditions: time 8 day
[25] = tested on: Hepatitis B virus; assay: Antiviral activity against HBV genotype D in immuno-competent C57BL/6 mouse model of chronic HBV assessed as log10 reduction in HBsAg production at 3 mg/kg, po qd for 7 days measured 24 hrs post-last dose by EIA (reference value: 0.67); type: functional; conditions: time 8 day

Compound	EC50 [1]	EC90 [1]	CC50 [3]	Ratio [4]	microsomal CLint at 0.3 µM [6]	microsomal CLint at 0.3 µM [7]	AUC(0-t) at 24 h [11]	Kp at 12 h [14]	microsomal CLint at 0.3 µM [15]	Ratio [5]	Kp at 24 h [10]	further results
CC(C)(C)C1Cc2c(cc(OC(F)F)c3ncccc23)-c2[nH]c(=O)c(C(=O)O)c(O)c21 (centres undefined)	0.3 nM	2.4 nM	48000 nM	–	–	–	–	–	–	–	–	Stability [2]: Unstable
Cn1c2c(cc(C(=O)O)c1=O)[C@H](C(C)(C)C)Cc1c-2nc2c(C(F)(F)F)cc(Cl)cn12	0.24 nM	2.5 nM	15000 nM	2002	2 µL/min/mg	1 µL/min/mg	786 ng·h/mL	43	7 µL/min/mg	–	–	Ratio ([5]; BLD = below limit of detection): Bld; Ratio [8]: Bld; AUC(0-t) at 24 h [9]: 17 ng·h/mL; Ratio [10]: Bld; Ratio [12]: 22; Ratio ([13]; BLD = below limit of detection): Bld; Kp at 12 h [16]: 24
CC(C)(C)C1Cc2c(nc3c(C(F)(F)F)cc(F)cn23)-c2[nH]c(=O)c(C(=O)O)cc21 (centres undefined)	4.9 nM	10 nM	> 50000 nM	–	–	–	–	–	–	–	–	–
CC(C)(C)[C@@H]1Cc2c(nc3c(C(F)(F)F)cccn23)-c2[nH]c(=O)c(C(=O)O)cc21	3.1 nM	46 nM	> 50000 nM	438	8 µL/min/mg	15 µL/min/mg	2150 ng·h/mL	72	2 µL/min/mg	3	92	–
CC(C)(C)[C@@H]1Cc2c(nc3c(OC(F)F)cccn23)-c2[nH]c(=O)c(C(=O)O)cc21	3.7 nM	34 nM	> 50000 nM	108	33 µL/min/mg	45 µL/min/mg	853 ng·h/mL	133	2 µL/min/mg	1	–	Ratio [10]: Bld
CC(C)(C)C1Cc2c(nc3c(C(F)(F)F)cc(Cl)cn23)-c2c1cc(C(=O)O)c(=O)n2C1CC1 (centres undefined)	2.3 nM	7 nM	16000 nM	–	–	–	–	–	–	–	–	–
CC(C)(C)[C@@H]1Cc2c(nc3c(C(F)(F)F)cc(Cl)cn23)-c2[nH]c(=O)c(C(=O)O)cc21	2 nM	34 nM	> 50000 nM	–	–	3 µL/min/mg	–	–	3 µL/min/mg	–	–	–
COc1cccn2c3c(nc12)-c1[nH]c(=O)c(C(=O)O)cc1[C@H](C(C)(C)C)C3	12 nM	121 nM	> 50000 nM	3	–	16 µL/min/mg	–	11	1 µL/min/mg	–	–	–
COCCCOc1cc2c(nc1OC)-c1[nH]c(=O)c(C(=O)O)c(O)c1[C@H](C(C)(C)C)C2	1.1 nM	13 nM	26000 nM	–	–	12 µL/min/mg	4940 ng·h/mL	–	57 µL/min/mg	4.6	1.3	bioavailability [17]: 93%; Stability [2]: Unstable
CC(C)(C)[C@@H]1Cc2c(nc3c(OC(F)F)cccn23)-c2[nH]c(=O)c(C(=O)O)c(O)c21	1.5 nM	14 nM	36000 nM	–	279 µL/min/mg	64 µL/min/mg	989 ng·h/mL	–	6 µL/min/mg	92	308	Ratio [18]: 1008; bioavailability [17]: 27%; log(activity) [19]: 0.52; AUC(0-t) at 24 h [20]: 209 ng·h/mL; Stability [2]: Unstable; Ratio [21]: 4397; log(activity) [22]: 0.32; bioavailability [23]: 16%
CC(C)(C)[C@@H]1Cc2c(nc3c(C(F)F)cccn23)-c2[nH]c(=O)c(C(=O)O)cc21	12 nM	135 nM	> 50000 nM	–	–	11 µL/min/mg	–	–	2 µL/min/mg	–	–	–
CC(C)(C)[C@@H]1Cc2c(nc3c(OC(F)F)cc(OC(F)F)cn23)-c2[nH]c(=O)c(C(=O)O)cc21	7.9 nM	7 nM	> 50000 nM	–	–	–	–	–	–	–	–	–
Cc1cc(C(F)(F)F)c2nc3c(n2c1)CC(C(C)(C)C)c1cc(C(=O)O)c(=O)[nH]c1-3 (centres undefined)	0.8 nM	11 nM	47000 nM	–	–	–	–	–	–	–	–	–
COc1ccn2c3c(nc2c1OC(F)F)-c1[nH]c(=O)c(C(=O)O)cc1[C@H](C(C)(C)C)C3	3.5 nM	49 nM	> 50000 nM	69	5 µL/min/mg	3 µL/min/mg	2690 ng·h/mL	24	4 µL/min/mg	1	19	Ratio [8]: Bld; AUC(0-t) at 24 h [9]: 44 ng·h/mL; Ratio [12]: 3; Ratio ([13]; BLD = below limit of detection): Bld; Kp at 12 h [16]: 22
COc1ccn2c3c(nc2c1OC)-c1[nH]c(=O)c(C(=O)O)cc1[C@H](C(C)(C)C)C3	5.6 nM	51 nM	> 50000 nM	–	–	1 µL/min/mg	5100 ng·h/mL	–	–	0.3	5	–
CC(C)(C)[C@@H]1Cc2c(nc3c(OC(F)F)cc(F)cn23)-c2[nH]c(=O)c(C(=O)O)cc21	3.7 nM	54 nM	> 50000 nM	1080	4 µL/min/mg	3 µL/min/mg	2740 ng·h/mL	105	1 µL/min/mg	203	194	Kp at 24 h ([8]; CD-1, mouse, liver and plasma): 101; AUC(0-t) at 24 h [9]: 67 ng·h/mL; Ratio [12]: 25; log(activity) [24]: 0.37; Ratio [13]: 7; log(activity) [25]: 0.16; Kp at 12 h [16]: 176

From ChEMBL document CHEMBL6127124, “Structure-Activity Relationships and Discovery of (S)-5-(tert-Butyl)-11-(difluoromethoxy)-9-methoxy-2-oxo-1,2,5,6-tetrahydropyrido[2',1':2,3]imidazo[4,5-h]quinoline-3-carboxylic Acid (AB-161), a Novel Orally Available and Liver-Centric HBV RNA Destabilizer” (J Med Chem, 2024)
